pIC50: −log10 of the molar value.

The text below walks through data of patent US8372871B2, “Histidinol dehydrogenase inhibitors, and use thereof as medicaments” (priority 2008, dated 2013).

Test [1] concerns the target B. suis histidinol dehydrogenase (Brucella suis biovar 1, UniProt Q8G2R2). The experiment in a line: biochemical. The class given is biochemical.
The next test concerns B. suis. The experiment in a line: microbe, parasite or virus in culture. The class given is cell-based, Brucella suis. The conditions noted are these: for inhibition at 50 µM / inhibition at 100 µM: Brucella suis, 168 h, read-out: Effects on the growth of B. suis (%) (inhibition of bacterial growth).
Test [2] concerns B. suis in the macrophage. The class given is cell-based, Brucella suis.

Sequence of B. suis histidinol dehydrogenase (Q8G2R2 whole entry, looked up): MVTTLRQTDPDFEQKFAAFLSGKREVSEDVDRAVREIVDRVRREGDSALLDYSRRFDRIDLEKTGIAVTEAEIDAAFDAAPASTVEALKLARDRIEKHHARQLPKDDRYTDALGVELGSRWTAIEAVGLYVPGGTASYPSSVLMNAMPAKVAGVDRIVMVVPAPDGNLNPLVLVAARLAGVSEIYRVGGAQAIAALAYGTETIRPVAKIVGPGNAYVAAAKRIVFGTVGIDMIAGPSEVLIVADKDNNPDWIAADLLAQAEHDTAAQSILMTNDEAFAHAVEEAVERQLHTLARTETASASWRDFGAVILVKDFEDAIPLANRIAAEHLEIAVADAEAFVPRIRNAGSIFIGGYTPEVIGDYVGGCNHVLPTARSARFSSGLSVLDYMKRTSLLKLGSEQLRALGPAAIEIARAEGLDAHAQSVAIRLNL

On to `CCCCc1ccc(-c2ccc(CC(=O)[C@@H](N)Cc3c[nH]cn3)cc2)cc1` [Compound 2b, (3S)-3-amino-1-(4′-butylbiphenyl-4-yl)-4-(1H-imidazol-4-yl) butan-2-one dihydrochlorhydrate], for which the pIC50 (as a rule, the negative decadic logarithm of the IC50, by convention in mol/L) in test [1] was 7.40. Moreover, in the test with B. suis, the inhibition (as a rule, how much of the control response was suppressed) at 50 µM was determined as 50% and the inhibition at 100 µM was determined as 60%.
As for `COc1ccc(-c2ccc(CC(=O)[C@@H](N)Cc3c[nH]cn3)cc2)cc1` [Compound 2c, (3S)-3-amino-4-(1H-imidazol-4-yl)-1-(4′-methoxybiphenyl-4-yl)butan-2-one dihydrochlorhydrate], the negative logarithm of the IC50 (pIC50) in test [1] was 7.70. Moreover, in the test with B. suis, the inhibition at 50 µM is 30% and the inhibition at 100 µM was 60%.
For `N[C@@H](Cc1c[nH]cn1)C(=O)Cc1ccc(-c2ccc(C(F)(F)F)cc2)cc1` [Compound 2d, (3S)-3-amino-4-(1H-imidazol-4-yl)-1-[4′-(trifluoromethyl)biphenyl-4-yl]butan-2-one dihydrochlorhydrate] the same measures were 7.52, 70% and 90%.
`N[C@@H](Cc1c[nH]cn1)C(=O)Cc1ccc(-c2ccc(Oc3ccccc3)cc2)cc1` [Compound 2f, (3S)-3-amino-4-(1H-imidazol-4-yl)-1-(4′-phenoxybiphenyl-4-yl)butan-2-one dihydrochlorhydrate] showed a negative logarithm of the IC50 (pIC50) in test [1] of 7.15. Also, in the test with B. suis, the inhibition at 50 µM stood at 70% and the inhibition at 100 µM is 90%.
Turning to `N[C@@H](Cc1c[nH]cn1)C(=O)Cc1ccc(-c2ccc3ccccc3c2)cc1` [Compound 2h, (3S)-3-amino-4-(1H-imidazol-4-yl)-1-[4-(2-naphthhyl)phenyl] butan-2-one dihydrochlorhydrate], the negative logarithm of the IC50 (pIC50) in test [1] is 7.52. In the test with B. suis, the “Inhibition of the growth of the bacteria in liquid medium” value (shortened to “Inhibition … in liquid medium”) was “completely inhibit”, the inhibition at 50 µM turned out to be 100% and the inhibition at 100 µM is 100%.
Regarding `Cc1ccc(/C=C/c2ccc(CC(=O)[C@@H](N)Cc3c[nH]cn3)cc2)cc1` [Compound 2k, (3S)-3-amino-4-(1H-imidazol-4-yl)-1-{4-[(E)-2-(4-methylphenyl)vinyl]phenyl}butan-2-one dihydrochlorhydrate], the pIC50 in test [1] was 7.40. Further, in the test on B. suis, the “Inhibition … in liquid medium” value is listed as “completely inhibit”, the inhibition at 50 µM turned out to be 100% and the inhibition at 100 µM was determined as 100%.
For the compound `N[C@@H](Cc1c[nH]cn1)C(=O)Cc1ccc(C#Cc2ccccc2)cc1` [Compound 3a, (3S)-3-amino-4-(1H-imidazol-4-yl)-1-[4-(phenylethynyl)phenyl] butan-2-one dihydrochlorhydrate], in test [1], the “Affinity for HDH” value was “significant affinity” and the pIC50 is 8.52. Also, the “Inhibition of the intracellular proliferation of the bacteria in the macrophage” value in test [2] is on record as “approximately 1000 times”. Further, in the test on B. suis, the “Inhibition … in liquid medium” value is reported as “completely inhibit”, the inhibition at 50 µM was found to be 100% and the inhibition at 100 µM is 100%.
In turn, `CC(C)(C)c1ccc(C#Cc2ccc(CC(=O)[C@@H](N)Cc3c[nH]cn3)cc2)cc1` [Compound 3c, (3S)-3-amino-1-{4-[(4-tert-butylphenyl)ethynyl]phenyl}-4-(1H-imidazol-4-yl)butan-2-one dihydrochlorhydrate] had a pIC50 in test [1] of 7.19. Also, in the test on B. suis, the inhibition at 50 µM worked out at 30% and the inhibition at 100 µM was found to be 30%.
For the compound `CCCCCc1ccc(C#Cc2ccc(CC(=O)[C@@H](N)Cc3c[nH]cn3)cc2)cc1` [Compound 3d, (3S)-3-amino-4-(1H-imidazol-4-yl)-1-{4-[(4-pentylphenyl)ethynyl]phenyl}butan-2-one dihydrochlorhydrate], the pIC50 in test [1] was 8.07. In the test with B. suis, the inhibition at 50 µM came to 30% and the inhibition at 100 µM was determined as 30%.
